The text below walks through data of US12240844B2 (Voronoi, Inc., priority 2019, dated 2025).

Broadly, the IC50 is the concentration at which inhibition is half-maximal. By GI50 is commonly meant the concentration giving 50% growth inhibition. Read a high GI50 as less potent growth inhibition. What is called inhibition is the relative decrease from the control value, in per cent. Low readings indicate little suppression, high ones strong suppression.

For one assay, the target named is T1, TTK (Homo sapiens, UniProt P33981).
T1 sequence (P33981 1-857): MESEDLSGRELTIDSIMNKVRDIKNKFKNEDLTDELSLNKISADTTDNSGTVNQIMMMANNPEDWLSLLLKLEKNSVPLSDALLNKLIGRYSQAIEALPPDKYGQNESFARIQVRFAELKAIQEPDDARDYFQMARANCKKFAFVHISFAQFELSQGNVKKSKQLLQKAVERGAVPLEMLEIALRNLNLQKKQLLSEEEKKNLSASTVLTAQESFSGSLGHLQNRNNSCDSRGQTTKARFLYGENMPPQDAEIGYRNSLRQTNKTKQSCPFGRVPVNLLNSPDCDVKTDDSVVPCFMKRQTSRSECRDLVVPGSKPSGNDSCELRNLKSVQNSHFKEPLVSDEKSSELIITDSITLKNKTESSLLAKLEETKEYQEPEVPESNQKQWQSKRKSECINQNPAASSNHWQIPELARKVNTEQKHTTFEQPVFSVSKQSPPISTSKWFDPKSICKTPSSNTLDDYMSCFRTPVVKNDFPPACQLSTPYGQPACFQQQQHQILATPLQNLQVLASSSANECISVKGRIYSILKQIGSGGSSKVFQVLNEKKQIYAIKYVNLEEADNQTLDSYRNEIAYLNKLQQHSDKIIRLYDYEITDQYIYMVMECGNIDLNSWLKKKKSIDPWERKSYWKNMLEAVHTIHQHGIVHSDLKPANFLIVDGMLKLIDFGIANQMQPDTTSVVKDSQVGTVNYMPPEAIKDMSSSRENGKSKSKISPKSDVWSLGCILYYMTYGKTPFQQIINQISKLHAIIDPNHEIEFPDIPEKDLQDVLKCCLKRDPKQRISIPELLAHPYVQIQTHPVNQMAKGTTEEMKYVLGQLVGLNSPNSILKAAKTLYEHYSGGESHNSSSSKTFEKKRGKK
In words: TTK enzyme inhibition, ADP-Glo kinase assay. The class given is biochemical. Also noted: purchased Signalchem T20-10G. The conditions noted are these: ATP 5 μM. On the procedure: In order to evaluate the inhibitory activity of the compounds according to the present invention on LRRK2, LRRK2 (G2019S), DYRK1, CLK1 and TTK kinases, the following experiment was performed.
Example compounds were reacted with the purified human TTK (Signalchem #T20-10G) enzyme to evaluate the enzyme inhibitory ability as follows. The reaction buffer was used as the composition of 40 mM Tris-HCl pH7.4, 20 mM MgCl2, 0.1 mg/ml BSA (5× kinase buffer, Signalchem #K03-09) and 50 μM DTT (Signalchem #D86-09B), and the reaction of all test materials was performed on the reaction buffer. The compound was diluted with 10 mM DMSO stock in […] by a serial dilution method, and the enzyme activity was measured at the final compound concentrations of 1, 0.333333, 0.111111, 0.037037, 0.012346, 0.004115, 0.001372, 0.000457, 0.000152, 0.000051 and 0.000017 μM. In the test, the human TTK (7.5 ng) enzyme was reacted with the purified ATP (5 μM, Promega #V6930) and an MBP enzyme substrate (0.2 μg, Signalchem M42-51N) at 25° C. for 4 hours, and then the enzyme activity was identified using the in vitro ADP-Glo™ kinase assay (Promega #V6930). The enzyme activity reaction liquid, an ADP-Glo reaction liquid and an enzyme potency detection solution were reacted in a ratio of 2:2:1, and the degree of inhibition of enzyme activity was measured by luminescence. The degree of inhibition of enzyme activity according to the treatment concentrations of the respective compounds was calculated based on the luminescence degree of the enzyme activity of a solvent control group that was not treated with the compound, where the concentration of each compound to inhibit enzyme activity inhibition by 50% was determined as an IC50 (nM) value and obtained using Prism (Version 8.2, GraphPad) software.
(§1) In the table below, the following designations were used for the evaluation of enzyme inhibitory ability.

Another assay concerns SHP-77. In words: SHP-77 cancer cell proliferation inhibition (Cell Titer-Glo). It is filed as cell-based. The conditions noted are these: Homo sapiens, SHP77, SHP-77 small cell lung cancer cell line, 72 hours. In a few lines:
(§2)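 GI50 comes from CellTiter-Glo luminescence, read 10 min after reagent addition at RT, following 72 h compound treatment. Eleven concentrations were used (⅓ steps, highest 10 μM final) on 2000 cells/well. MDA-MB-231 and MDA-MB-468 were grown in DMEM, SHP-77 in RPMI.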
In general terms: Cellular ATP, detected with luciferase, serves as a proxy for viable cell number.

Assay [1] has as its target T2, LRRK2, LRRK2 (G2019S), DYRK1, CLK1 and TTK kinases (Homo sapiens, UniProt Q13627).
T2 construct: other: DYRK1; Kinase HotSpot service (Reaction Biology), ATP 10 uM
In words: Enzyme IC50 by Kinase HotSpot service (Reaction Biology Corporation), values marked with *. The class given is biochemical. The conditions noted are these: DYRK1, ATP 10 uM. On the procedure: (§3) Meanwhile, the enzyme IC50 measurement for some compounds was performed using Kinase HotSpot service (Reaction Biology Corporation); during the test, the ATP concentration was 10 uM, where all were conducted under the same condition; and the concentration of the compound was measured by giving a 3-fold concentration gradient with the highest concentration of […], where the values measured using Kinase HotSpot service (Reaction Biology Corporation) were marked with “*”.
(§4) All experimental methods were performed as provided in Kinase HotSpot Customer Protocol (http://www.reactionbiology.com//Kinase_Assay_Protocol).
as §1

In assay [2] the target is T3, LRRK2, LRRK2 (G2019S), DYRK1, CLK1 and TTK kinases (Homo sapiens, UniProt P49759).
T3 construct: CLK1 IC50 (marked with *); other: CLK1; Kinase HotSpot service (Reaction Biology), ATP 10 uM
T3 sequence (P49759 whole entry, stated change not applied): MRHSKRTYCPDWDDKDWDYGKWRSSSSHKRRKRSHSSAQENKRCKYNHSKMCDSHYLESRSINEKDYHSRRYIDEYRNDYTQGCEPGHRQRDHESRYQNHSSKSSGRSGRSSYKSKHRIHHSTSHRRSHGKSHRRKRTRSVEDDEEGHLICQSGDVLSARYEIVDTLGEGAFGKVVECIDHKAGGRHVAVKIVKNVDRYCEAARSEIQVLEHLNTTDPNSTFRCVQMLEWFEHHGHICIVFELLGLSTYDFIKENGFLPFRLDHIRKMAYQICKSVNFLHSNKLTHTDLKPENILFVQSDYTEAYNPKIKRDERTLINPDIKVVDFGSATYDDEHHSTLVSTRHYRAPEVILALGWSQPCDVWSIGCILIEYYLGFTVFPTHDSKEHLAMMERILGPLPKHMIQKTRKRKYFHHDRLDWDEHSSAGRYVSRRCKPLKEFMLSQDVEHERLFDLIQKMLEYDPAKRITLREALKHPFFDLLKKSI
The description is as above. It is filed as biochemical. The following applies: CLK1, ATP 10 uM. On the procedure: as §3, §4, §1

Assay [3] has as its target T4, LRRK2, LRRK2 (G2019S), DYRK1, CLK1 and TTK kinases (Homo sapiens, UniProt Q5S007, G2019S).
T4 construct: other: LRRK2 (G2019S); Kinase HotSpot service (Reaction Biology), ATP 10 uM
The assay is described as above. It is filed as biochemical. The conditions noted are these: LRRK2 (G2019S), ATP 10 uM. As for the experimental part: as §3, §4, §1

Assay [4] has as its target T5, LRRK2, LRRK2 (G2019S), DYRK1, CLK1 and TTK kinases (Homo sapiens, UniProt Q5S007).
T5 construct: LRRK2 IC50 (marked with *); other: LRRK2; Kinase HotSpot service (Reaction Biology), ATP 10 uM
The assay is described as above. The class given is biochemical. The following applies: LRRK2, ATP 10 uM. On the procedure: as §3, §4, §1

Another assay has as its system MDA-MB-231 cell line. In words: MDA-MB-231 cancer cell proliferation inhibition (Cell Titer-Glo). The class given is cell-based. The following applies: Homo sapiens, MDA-MB-231 triple-negative breast cancer cell line, 72 hours. In a few lines:
as §2

Another assay deals with human DYRK1A and Tau. In words: Tau phosphorylation inhibition, ClariCELL Kinase Cell-Based Assay (Carnabio). A digest of the protocol: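 HEK293 cells transiently expressing human DYRK1A and Tau were exposed to compound, then lysed. Released Tau was captured on plate and its phosphorylation quantified by ELISA with a phospho-Tau-specific antibody.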

A value given as a limit tells only on which side of the number the result lay.

T5 sequence (Q5S007 whole entry G2019S): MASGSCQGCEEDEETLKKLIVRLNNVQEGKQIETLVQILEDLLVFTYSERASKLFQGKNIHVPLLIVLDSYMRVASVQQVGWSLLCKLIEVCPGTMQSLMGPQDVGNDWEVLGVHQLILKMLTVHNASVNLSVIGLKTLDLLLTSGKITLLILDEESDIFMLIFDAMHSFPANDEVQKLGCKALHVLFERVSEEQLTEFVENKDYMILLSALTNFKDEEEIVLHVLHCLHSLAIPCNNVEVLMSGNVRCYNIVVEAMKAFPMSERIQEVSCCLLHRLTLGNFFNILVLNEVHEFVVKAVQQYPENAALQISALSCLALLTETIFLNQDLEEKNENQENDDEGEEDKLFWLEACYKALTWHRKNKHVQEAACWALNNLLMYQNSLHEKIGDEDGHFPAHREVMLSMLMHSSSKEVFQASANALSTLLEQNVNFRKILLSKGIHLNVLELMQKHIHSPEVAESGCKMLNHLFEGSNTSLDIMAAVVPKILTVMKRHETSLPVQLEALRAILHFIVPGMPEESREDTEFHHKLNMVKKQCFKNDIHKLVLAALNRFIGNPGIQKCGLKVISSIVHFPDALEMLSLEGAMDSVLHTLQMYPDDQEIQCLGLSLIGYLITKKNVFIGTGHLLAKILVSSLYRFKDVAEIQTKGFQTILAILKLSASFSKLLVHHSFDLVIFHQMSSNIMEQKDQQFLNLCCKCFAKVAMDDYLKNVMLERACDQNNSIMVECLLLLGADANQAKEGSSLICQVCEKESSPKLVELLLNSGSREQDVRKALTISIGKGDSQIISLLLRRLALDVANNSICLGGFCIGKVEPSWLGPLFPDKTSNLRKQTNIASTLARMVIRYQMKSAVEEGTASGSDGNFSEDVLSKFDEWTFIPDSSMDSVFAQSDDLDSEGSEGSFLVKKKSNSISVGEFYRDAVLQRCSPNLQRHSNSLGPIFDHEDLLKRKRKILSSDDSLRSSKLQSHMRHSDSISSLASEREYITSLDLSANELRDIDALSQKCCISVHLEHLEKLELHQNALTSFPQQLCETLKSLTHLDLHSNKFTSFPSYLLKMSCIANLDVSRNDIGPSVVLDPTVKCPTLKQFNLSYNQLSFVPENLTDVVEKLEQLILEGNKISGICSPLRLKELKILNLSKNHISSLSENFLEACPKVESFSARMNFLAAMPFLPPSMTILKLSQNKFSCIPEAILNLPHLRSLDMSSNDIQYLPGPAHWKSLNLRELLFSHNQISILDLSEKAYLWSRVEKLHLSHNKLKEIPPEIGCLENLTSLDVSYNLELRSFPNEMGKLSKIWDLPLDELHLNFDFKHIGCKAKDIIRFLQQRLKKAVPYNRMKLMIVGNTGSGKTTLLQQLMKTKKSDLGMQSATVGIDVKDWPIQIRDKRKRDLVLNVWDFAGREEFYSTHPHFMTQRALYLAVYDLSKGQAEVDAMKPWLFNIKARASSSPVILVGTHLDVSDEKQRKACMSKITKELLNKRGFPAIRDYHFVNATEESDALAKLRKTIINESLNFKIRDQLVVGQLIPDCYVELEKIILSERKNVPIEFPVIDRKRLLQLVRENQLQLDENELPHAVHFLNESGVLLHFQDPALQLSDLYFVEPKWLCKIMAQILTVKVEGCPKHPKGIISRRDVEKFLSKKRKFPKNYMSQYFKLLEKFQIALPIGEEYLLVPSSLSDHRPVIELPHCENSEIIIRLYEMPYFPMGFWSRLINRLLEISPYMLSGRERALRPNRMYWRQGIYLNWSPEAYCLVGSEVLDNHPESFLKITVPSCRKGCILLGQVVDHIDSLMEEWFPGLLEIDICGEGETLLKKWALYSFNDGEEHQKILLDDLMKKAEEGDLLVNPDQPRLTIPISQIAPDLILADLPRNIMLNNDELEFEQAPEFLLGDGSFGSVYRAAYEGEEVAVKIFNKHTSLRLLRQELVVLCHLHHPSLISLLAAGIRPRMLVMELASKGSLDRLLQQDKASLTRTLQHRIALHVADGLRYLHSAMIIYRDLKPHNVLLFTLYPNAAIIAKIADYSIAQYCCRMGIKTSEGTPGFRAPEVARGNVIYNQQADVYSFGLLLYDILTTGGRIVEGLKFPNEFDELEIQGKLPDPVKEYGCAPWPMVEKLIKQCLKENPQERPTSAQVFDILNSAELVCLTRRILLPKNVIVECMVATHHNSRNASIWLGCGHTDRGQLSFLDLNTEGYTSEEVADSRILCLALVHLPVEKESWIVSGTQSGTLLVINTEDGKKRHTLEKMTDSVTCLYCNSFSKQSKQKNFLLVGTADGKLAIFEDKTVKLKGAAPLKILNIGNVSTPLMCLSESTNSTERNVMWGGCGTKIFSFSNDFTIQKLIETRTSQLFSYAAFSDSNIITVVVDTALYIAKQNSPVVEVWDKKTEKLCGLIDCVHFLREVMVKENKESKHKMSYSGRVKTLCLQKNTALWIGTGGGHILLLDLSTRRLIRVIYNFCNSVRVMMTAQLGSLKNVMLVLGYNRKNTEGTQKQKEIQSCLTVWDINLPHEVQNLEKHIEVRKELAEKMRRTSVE
T4 sequence (Q5S007 whole entry G2019S): as above

Take `COc1cc(S(=O)(=O)N2CCC(N3CCOCC3)CC2)ccc1Nc1cc(C2CC2)c2c(C(F)(F)F)c[nH]c2n1` [Example 223, 4-cyclopropyl-N-(2-methoxy-4-((4-morpholinopiperidin-1-yl)sulfonyl)phenyl)-3-(trifluoromethyl)-1H-pyrrolo[2,3-b]pyridin-6-amine]: the IC50 (on TTK; in assay [1]; in assay [2]; in assay [3]; in assay [4]) was under 100 nM each time. The 50% growth inhibitory concentration (GI50) in the assay with SHP-77 and in the assay with MDA-MB-231 cell line was 301 to 1000 nM each time. The same compound returned an inhibition at 0.25 µM with human DYRK1A and Tau (0.25 uM) of 4.6%. The same compound returned an inhibition at 0.5 µM in the assay with human DYRK1A and Tau (0.5 uM) of 12.9%. Besides, the inhibition at 1 µM in the assay on human DYRK1A and Tau (1 uM) is 29%.
